Assay results taken from US9403806B1, “Cognition enhancing compounds and compositions, methods of making, and methods of treating” (NeuroSolis, Inc., priority 2010, dated 2016).
Like-named read-outs stand apart in the source and are kept apart here.

Tests used:
[1] = tested on: salivary gland inositol phosphate; experiment: In vivo tissue inositol phosphate signaling pathway activation, salivary gland; set-up: species or system Long Evans Hooded rats; settings: rat; for block of increase in salivary gland inositol phosphate caused by Compound 3: Compound 3 1 mg/kg, tertiary amine antagonist 0.1 mg/kg (FIGS. 8C, 8D); for inhibition of salivary gland inositol phosphate response to MCD-386: MCD-386 50 mg/kg, antagonist 0.3 mg/kg (FIG. 7)
Procedure: Experimental compounds or drug substances were administered using standard techniques to Long Evans Hooded rats weighing 225 to 350 grams, and which had been pretreated with a subcutaneous injection of lithium chloride at a suitable dose between 3 and 10 mmoles per kg. At suitable times the animals were briefly anesthetized using 5% isoflurane and euthanized by decapitation. The brains and submaxillary salivary glands were rapidly dissected out, and the hippocampuses were dissected from the brains. The dissected tissues were homogenized in a suitable volume of ice-cold phosphate-buffered saline containing 10 mM lithium chloride, pH7.4, using a tissue homogenizer, and used immediately or frozen in aliquots at −80 deg C. for future use. The concentration of inositol-1-phosphate was determined in the homogenates using the IPOne TR-FRET assay (CisBio cat no 621PAPEB), following the manufacturer's instruction

anesthetized rats = experiment: Salivation after iontophoretic transdermal co-delivery of agonist and antagonist; assay type: in vivo, Long Evans Hooded rats; settings: anesthetized rat, one patch with 1 mg Compound 3 plus 0.01 mg antagonist
Procedure: Experimental compounds and drug substances were delivered transdermally in rats using iontophoresis as follows. The fur was shaved from the backs of Long Evans Hooded rats weighing 225 to 325 grams, using electric clippers. Experimental compounds and drug substances were formulated at suitable concentrations an aqueous mixture of the following composition:
The polyvinyl alcohol/water was heated to 95 deg C. until it became clear, then the other constituents were added and mixed well. The mixture was introduced into suitable molds containing a disc-shaped cavity 2.2 cm diameter and 2.2 mm deep. Molds may be fabricated using two glass sheets separated by a silicone rubber sheet with suitable sized cavities and filling ports cut-outs. The molds were subject to 3 freeze-thaw cycles at −80 deg C. and 20 deg C. until a firm cryogel was obtained. The gels were separated from the molds and trimmed into a circular shape. The gel was placed in a silicone rubber casing with one face in contact with a circular silver foil anodic electrode (22 mm dia/250 microns thick), and the assembly was placed on the shaved skin of the rat such that the other face was in contact with the skin on one side of the back of the rat. The rubber casing formed a seal over and around the gel/electrode assembly. […] This was placed on the other side of the shaved back of the rat, the edges of the gel discs being about 20 mm apart at their nearest point. A DC voltage was applied across the two patches from a constant-current DC power supply and the voltage adjusted to obtain the desired current, such that the skin of the animal completed the electrical circuit.
The devices were placed on shaved backs of anesthetized rats and salivation was measured.
The animals were placed slightly head-down on an inclined, heated ramp. Rectal temperature was monitored using a thermocouple and the temperature of the heating pad was adjusted manually to maintain normal body temperature. Saliva was collected from the mouth by absorption onto pre-weighed slips of filter paper. The filter paper was changed periodically and the amount of saliva was measured by weighing the filter paper slips

CD-I mice = experiment: Apomorphine induced climbing model of psychosis; assay type: in vivo; settings: APO 2 mg/kg alone
Procedure: As described in Costall et. al. European Journal of Pharmacology 1978, 50, 39. individual CD-I mice, 1-2 months old, were placed in a cylindrical wire mesh cage (13.2 cm high×13.2 cm diameter) constructed of steel wire 1 mm thick spaced at 1.2 cm^2. Cylinders were placed in a standard OptiMICE mouse cage (29×32×9×29 cm and 14 cm high) with adequate wood chip bedding provided. Observations of climbing (defined as 3 or more paws of the ground) were carried out every 5 minutes at a duration of 1 minute for […]. Animals were injected subcutaneously under isoflurane anesthesia with test compounds, reference compounds, which included clozapine, haloperidol, olanzapine and xanomeline, or PBS as a control. This was followed 5 minutes later by 2 mg/kg apomorphine hydrochloride. All drugs were dissolved in PBS or a mixture of (by volume) 96% PBS and 4% hydroxypropyl-beta-cyclodextrin, and dosed at a rate of 5 ml per kilogram of body weight. Following injections, animals were replaced in the mesh cages and observed for climbing (defined as 3 or more paws off the ground) every 5 minutes for 1 minute for 60 minutes after dosing.

[2] = biological target: T1, human muscarinic M1 receptors (Homo sapiens, UniProt P11229); assay type: cell-based; settings: for huM1/A9L Smax: percentage of maximal stimulation by carbachol
T1 construct: host or cells: A9L cells
T1 sequence (P11229 1-460): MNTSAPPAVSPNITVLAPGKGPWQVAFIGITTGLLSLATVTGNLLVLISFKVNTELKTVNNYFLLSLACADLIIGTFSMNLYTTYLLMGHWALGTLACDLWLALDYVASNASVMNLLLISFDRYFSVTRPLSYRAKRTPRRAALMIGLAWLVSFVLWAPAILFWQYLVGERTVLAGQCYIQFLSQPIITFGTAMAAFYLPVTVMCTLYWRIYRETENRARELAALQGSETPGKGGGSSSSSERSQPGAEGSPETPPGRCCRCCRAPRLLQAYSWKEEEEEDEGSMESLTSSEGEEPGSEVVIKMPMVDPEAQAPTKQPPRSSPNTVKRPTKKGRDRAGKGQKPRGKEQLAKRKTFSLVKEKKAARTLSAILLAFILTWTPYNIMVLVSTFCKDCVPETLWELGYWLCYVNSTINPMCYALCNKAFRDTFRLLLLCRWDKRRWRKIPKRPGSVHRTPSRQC

[3] = biological target: T2, human muscarinic M3 receptors (Homo sapiens, UniProt P20309); assay type: cell-based; settings: for huM3/A9L Smax: percentage of maximal stimulation by carbachol
T2 construct: host or cells: A9L cells
T2 sequence (P20309 whole entry): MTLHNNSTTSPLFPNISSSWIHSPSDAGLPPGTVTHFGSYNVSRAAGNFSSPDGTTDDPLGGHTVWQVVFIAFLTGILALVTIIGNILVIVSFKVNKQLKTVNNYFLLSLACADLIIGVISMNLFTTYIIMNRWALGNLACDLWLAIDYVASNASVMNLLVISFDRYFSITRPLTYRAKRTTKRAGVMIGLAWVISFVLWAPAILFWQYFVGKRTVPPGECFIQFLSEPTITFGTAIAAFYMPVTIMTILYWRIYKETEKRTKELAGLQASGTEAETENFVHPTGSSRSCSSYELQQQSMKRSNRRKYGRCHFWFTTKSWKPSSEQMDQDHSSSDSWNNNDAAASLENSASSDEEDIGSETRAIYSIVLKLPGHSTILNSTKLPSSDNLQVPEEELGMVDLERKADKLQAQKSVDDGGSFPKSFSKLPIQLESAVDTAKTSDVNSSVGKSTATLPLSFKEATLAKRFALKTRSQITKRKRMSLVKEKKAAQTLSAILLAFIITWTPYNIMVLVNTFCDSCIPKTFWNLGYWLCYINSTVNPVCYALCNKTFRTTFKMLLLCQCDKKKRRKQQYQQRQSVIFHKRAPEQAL

[4] = tested on: muscarinic M1 receptors in the hippocampus; experiment: In vivo inositol phosphate increase in hippocampus, Example 44; set-up: species or system Long Evans Hooded rats; settings: rat, 3 mg/kg sc, 5 mmole/kg LiCl
Procedure: (§1) In lithium chloride-treated laboratory rodents, engagement of muscarinic M1 receptors in the hippocampus may usefully be evaluated in vivo by measuring the increase in the tissue of inositol phosphate (Bymaster F P et al Brain Res 795 (1998) 179-190). This may also be extended to measure engagement of muscaric M3 receptors in the salivary glands.
(§2) Experimental compounds were administered subcutaneously at 3 mg/kg using standard techniques to Long Evans Hooded rats weighing 225 to 350 g, and which had been pretreated with a subcutaneous injection of lithium chloride at a suitable dose between 3 and 5 mmole/kg. At suitable times the animals were briefly anesthetized using 5% isoflurane and euthanized by decapitation. The brains and submaxillary salivary glands were rapidly dissected out, and the hippocampuses were dissected from the brains. The dissected tissues were homogenized in a suitable volume of ice-cold phosphate-buffered saline containing 10 mM lithium chloride (pH=7.4) using a tissue homogenizer, and used immediately or frozen in aliquots at −80° C. for future use. The concentration of inositol-1-phosphate was determined in the homogenates using the […] IP-One Terbium TR-FRET assay kit (Cisbio Bioassays, cat. #62IPAPEJ) according to the manufacturer's instructions.

[5] = tested on: muscarinic M3 receptors in the salivary glands; experiment: In vivo inositol phosphate increase in salivary glands, Example 44; set-up: species or system Long Evans Hooded rats; settings: rat, 3 mg/kg sc, 5 mmole/kg LiCl
Procedure: as §1, §2

[6] = tested on: pooled male human liver microsomes; experiment: Metabolism in human liver microsomes, Example 45; assay type: in vitro ADME
Procedure: Aliquots were removed every 2 hours, and 1% formic acid was added to halt the reaction. Samples were centrifuged, filtered through 0.2 micron spinfilter, and the amount of each compound in the supernatants was quantitated using LC/MS/MS as follows. The ultra-filtrates were subjected to reverse-phase liquid chromatography using a 150×2.1 mm Agilent C8-reverse phase column on a Shimadzu Prominence LC, eluting the compound with a gradient of 2%-50% acetonitrile+0.1% formic acid over 5 minutes. The concentration of the compound in the column effluent was measured using an Applied Biosystems API-3200 triple quadrupole mass spectrometer equipped with a Turbo V source (electrospray sample injection) system. The counts of the characteristic parent ions of the protonated compound and product ions were converted to concentration by comparison with a standard calibration curve. The parent/daughter ion pairs that were monitored for each compound were: 166.0/82.0 (105), 166.0/82.0 (106b), 166.0/82.0 (106a), 169.0/83.0 (136), 168.2/83.0 (121), 168.1/83.0 (122a), 168.1/83.0 (122b), 170.2/83.0 (134), 168.2/84.1 (135), 168.1/84.1 (137) and 169.2/82.1 (138).

in vitro = in vitro ADME; settings: PAMPA, pH 7.4, 400 μM, pH 7.4, 24 hours, room temperature; read-out: PAMPA Permeability Coefficient (×10^6)
Procedure: PAMPA is a useful in vitro model for predicting the passive diffusion of drugs across the blood-brain barrier (Li, D et al Eur jour of Med Chem 38 (2003) 223-232).
Compounds were diluted in a 100 mM phosphate buffer (pH 7.4) to a concentration of 400 μM and the stock solutions were placed into a 96-well filter plate (Millipore, #MAIPN4510) pre-wetted with 20 mg/mL porcine brain polar lipid extract in 100% dodecane (Avanti, #131022) and placed into a 96-well acceptor plate (Millipore, #MSSACCEPTOR) whose wells were filled with the same phosphate buffer as in the filter plate. This assembly was incubated at room temperature for 24 hours. The experiment was halted by separating the filter plate from the acceptor plate. Aliquots were removed from the filter plate wells, acceptor plate wells, and stock solutions, and 1% trifluoroacetic acid was added to each. All solutions were measured by LC/UV, and passive diffusion rates were calculated using the peak area values (Avdeef, Alex. 2003. Page 147 in Absorption and Drug Development. Hoboken, N.J.: John Wiley & Sons).

[7] = Blood and brain concentrations (rats), tail vein injection; assay type: in vivo, Long-Evans Hooded rats; settings: rat; for Kp at 1 h: brain and plasma, intravenous, Table 114, read-out: Brain/Plasma Ratio; for concentration at 1 h: 3 mg/kg tail vein injection
Procedure: Long-Evans Hooded rats (Charles River: male, 230-300 g) were dosed with solutions of test compounds in PBS by tail vein injection. The dose for all compounds was 3 mg/kg. At one hour, the animals were anesthetized with isoflurane, and then euthanized by decapitation. Trunk blood was collected into a 1.5 mL microcentrifuge tube containing 15 U Heparin, and the plasma recovered after centrifugation. Brains were dissected, weighed, immediately chilled to 4° C., and homogenized using a PowerGen 125 homogenizer in five volumes of ice-cold 2% formic acid. Proteins were precipitated from plasma and brain homogenate with nine and five volumes respectively of ice-cold 2% formic acid and clarified by centrifugation. The supernatant was ultra-filtered by centrifugation through a 3K MWCO spin column (Pall Life Sciences), following the manufacturer's instructions. The concentration of compound in the ultra-filtrate was subjected to reverse-phase liquid chromatography using a 150×2.1 mm Agent C8 reverse-phase column on a Shimadzu Prominence LC, eluting the compounds with a gradient of 2% to 50% of acetonitrile+0.1% formic acid for all compounds. The concentration of the compound in the column effluent was measured using an Applied Biosystems API-3200 triple quadrupole mass spectrometer equipped with an electrospray sample injection system. The counts of the characteristic parent and product ions of each test compound were converted to concentration units by comparison with a standard curve.

[8] = as above; assay type: in vivo, Long-Evans Hooded rats; settings: male, Long-Evans Hooded, rat, plasma, iv, 3 mg/kg, 3 mg/kg tail vein injection, read-out: Plasma Terminal Half-life (converted)
[9] = relative to the potency of carbachol at its EC50
[10] = male, Long-Evans Hooded, 3 mg/kg
[11] = male, Long-Evans Hooded, in vivo, 3 mg/kg, read-out: Plasma Concentration at 1 hr

| SMILES | block of increase in salivary gland inositol phosphate caused by Compound 3 [1] | inhibition of salivary gland inositol phosphate response to MCD-386 [1] | reduction of salivation caused by transdermal iontophoretic delivery of Compound 3 (anesthetized rats) | huM1/A9L Smax [2] | huM3/A9L Smax [3] | Loss at 6 hrs (%) [6] | Papp at 24 h, 400 µM (in vitro) | Kp at 1 h [7, 10] | concentration at 1 h [7, 11] | half-life [8] | also measured |
| --- | --- | --- | --- | --- | --- | --- | --- | --- | --- | --- | --- |
| CCN(CC)CC#CCOC(=O)C(O)(c1ccccc1)C1CCCCC1 (centres unmarked) [oxybutinin] | less effective | less effective | reduced salivation, but were less effective | – | – | – | – | – | – | – | – |
| NC(=O)C(c1ccccc1)(c1ccccc1)[C@@H]1CCN(CCc2ccc3c(c2)CCO3)C1 [darifenacin] | less effective | less effective | reduced salivation, but were less effective | – | – | – | – | – | – | – | – |
| CN1CCc2cccc3c2[C@H]1Cc1ccc(O)c(O)c1-3 [APO, reference compound] | – | – | – | – | – | – | – | – | – | – | Climbing Mean (CD-I mice): 51.7 s |
| [2H]C([2H])([2H])c1noc(C23CNC([2H])([2H])C2C3)n1 (centres unmarked) [Compound 136, 5-(4,4,5-d3-3-azabicyclo[3.1.0]hexan-1-yl)-3-methyl-1,2,4-oxadiazole] | – | – | – | 41% | 36% | 11% | 3.71 ×10⁻⁶ cm/s | 0.56 | 13.6 µM | 1.15 h | huM1/A9L Potency relative to carbachol [2, 9]: 0.89; huM3/A9L Potency relative to carbachol [3, 9]: 0.45; Increase in Inositol Phosphate in Hippocampus/Control ([4]; 3 mg/kg): 694%; Increase in Inositol Phosphate in Salivary Gland/Control ([5]; 3 mg/kg): 231%; concentration at 1 h ([7]; read-out: Brain Concentration at 1 hr): 7.4 µM |
| [2H]C1([2H])NCC2(c3nc(C)no3)CC12 (racemic) [Compound 121, 5-(4,4-d2-3-Azabicyclo[3.1.0]hexan-1-yl)-3-methyl-1,2,4-oxadiazole] | – | – | – | 73% | 37% | 13% | 3.78 ×10⁻⁶ cm/s | 0.51 | 16.8 µM | 1.26 h | Increase in Inositol Phosphate in Hippocampus/Control [4]: 795%; Increase in Inositol Phosphate in Salivary Gland/Control [5]: 239%; concentration at 1 h ([7]; male, Long-Evans Hooded, in vivo, 3 mg/kg, read-out: Brain Concentration at 1 hr): 8.6 µM |
